Source: patent publication US11084829B2, “Ubiquitin-specific-processing protease 7 (USP7) modulators and uses thereof” (RAPT THERAPEUTICS, INC., priority 2018, dated 2021)

Target: USP7 (Homo sapiens, UniProt Q93009)
Assay: USP7 inhibitory potency (IC50)
Type: biochemical
Protocol: Activity for compounds described herein is provided in Table 2, wherein potency levels are provided as follows: (Potency: USP7 IC50: A<0.01 μM; B=0.01-0.1 μM; C=>0.1 μM.

Chain of USP7 (Q93009 whole entry): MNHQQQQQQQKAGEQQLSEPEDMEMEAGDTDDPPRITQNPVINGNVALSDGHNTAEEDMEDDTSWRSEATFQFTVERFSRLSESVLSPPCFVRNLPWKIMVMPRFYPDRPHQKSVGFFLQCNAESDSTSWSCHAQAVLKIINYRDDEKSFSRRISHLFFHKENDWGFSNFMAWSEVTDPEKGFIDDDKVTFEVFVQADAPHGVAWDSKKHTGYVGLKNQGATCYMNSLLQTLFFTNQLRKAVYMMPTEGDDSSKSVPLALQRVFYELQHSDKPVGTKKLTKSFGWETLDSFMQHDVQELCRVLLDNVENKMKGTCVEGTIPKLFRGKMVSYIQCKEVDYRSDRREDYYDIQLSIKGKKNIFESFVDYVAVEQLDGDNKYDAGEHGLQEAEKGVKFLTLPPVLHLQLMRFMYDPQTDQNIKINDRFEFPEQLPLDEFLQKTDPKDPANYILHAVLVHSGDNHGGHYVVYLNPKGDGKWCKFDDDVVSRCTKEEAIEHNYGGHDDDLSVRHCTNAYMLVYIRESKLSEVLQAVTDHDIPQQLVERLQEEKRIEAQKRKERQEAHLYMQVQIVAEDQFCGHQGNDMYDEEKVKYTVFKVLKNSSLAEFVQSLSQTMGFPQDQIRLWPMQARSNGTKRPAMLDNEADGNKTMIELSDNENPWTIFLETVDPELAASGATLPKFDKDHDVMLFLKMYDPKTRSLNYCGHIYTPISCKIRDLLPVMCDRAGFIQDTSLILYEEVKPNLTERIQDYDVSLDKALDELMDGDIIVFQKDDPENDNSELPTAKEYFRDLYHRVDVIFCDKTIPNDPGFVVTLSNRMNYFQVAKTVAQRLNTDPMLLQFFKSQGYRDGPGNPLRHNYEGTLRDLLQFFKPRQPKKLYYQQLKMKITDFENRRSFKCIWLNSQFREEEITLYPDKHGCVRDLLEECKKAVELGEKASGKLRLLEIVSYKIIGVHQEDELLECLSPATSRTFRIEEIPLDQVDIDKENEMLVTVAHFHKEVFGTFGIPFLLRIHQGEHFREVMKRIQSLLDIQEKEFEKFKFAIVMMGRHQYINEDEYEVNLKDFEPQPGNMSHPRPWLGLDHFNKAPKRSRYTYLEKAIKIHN

| IC50 [nM] | SMILES |
| --- | --- |
| < 10 | Cc1cc(Cl)cc(-c2ncnc3cc(CN4C(=O)C5CC5C4=O)sc23)c1CN1CCNC[C@@H]1C (stereo partly drawn) [Example 51, 3-((4-(5-chloro-3-methyl-2-(((S)-2-methylpiperazin-1-yl)methyl)phenyl)thieno[3,2-d]pyrimidin-6-yl)methyl)-3-azabicyclo[3.1.0]hexane-2,4-dione] |
| < 10 | Cc1cc(Cl)cc(-c2ncnc3cc(Cn4c(=O)ccn(C5CC5)c4=O)sc23)c1CC1CNCCO1 (stereo not shown) [Example 165, 3-((4-(5-chloro-3-methyl-2-(morpholin-2-ylmethyl)phenyl)thieno[3,2-d]pyrimidin-6-yl)methyl)-1-cyclopropylpyrimidine-2,4(1H,3H)-dione] |
| < 10 | Cc1cc(Cl)cc(-c2ncnc3cc(CN4C(=O)CCNC4=O)sc23)c1C[C@@H]1CNCCO1 [Example 247, (R)-3-((4-(5-chloro-3-methyl-2-(morpholin-2-ylmethyl)phenyl)thieno[3,2-d]pyrimidin-6-yl)methyl)dihydropyrimidine-2,4(1H,3H)-dione] |
| < 10 | Cc1cc(Cl)cc(-c2ncnc3cc(CN4C(=O)COC4=O)sc23)c1CC1CNCCO1 (stereo not shown) [Example 178, 3-((4-(5-chloro-3-methyl-2-(morpholin-2-ylmethyl)phenyl)thieno[3,2-d]pyrimidin-6-yl)methyl)oxazolidine-2,4-dione] |
| < 10 | Cc1cc(Cl)cc(-c2ncnc3cc(CN4C(=O)CC[C@@H]4CF)sc23)c1C[C@@H]1CNCC(C)(C)O1 [Example 219, (R)-1-((4-(5-chloro-2-(((R)-6,6-dimethylmorpholin-2-yl)methyl)-3-methylphenyl)thieno[3,2-d]pyrimidin-6-yl)methyl)-5-(fluoromethyl)pyrrolidin-2-one] |
| < 10 | Cc1cc(Cl)cc(-c2ncnc3cc(CN4C(=O)[C@@H]5CCCN5C4=O)sc23)c1CN1[C@@H](C)CNC[C@@H]1C [Example 88, (S)-2-((4-(5-chloro-2-(((2S,6S)-2,6-dimethylpiperazin-1-yl)methyl)-3-methylphenyl)thieno[3,2-d]pyrimidin-6-yl)methyl)tetrahydro-1H-pyrrolo[1,2-c]imidazole-1,3(2H)-dione] |
| < 10 | Cc1cc(Cl)cc(-c2ncnc3cc(CN4C(=O)CCC4=O)sc23)c1CC1CNCCO1 (stereo not shown) [Example 153, 1-((4-(5-chloro-3-methyl-2-(morpholin-2-ylmethyl)phenyl)thieno[3,2-d]pyrimidin-6-yl)methyl)pyrrolidine-2,5-dione] |
| < 10 | Cc1cc(Cl)cc(-c2ncnc3cc(CN4C(=O)OC[C@@H]4CO)sc23)c1C[C@@H]1CNCC(C)(C)O1 [Example 268, (S)-3-((4-(5-chloro-2-(((R)-6,6-dimethylmorpholin-2-yl)methyl)-3-methylphenyl)thieno[3,2-d]pyrimidin-6-yl)methyl)-4-(hydroxymethyl)oxazolidin-2-one] |
| < 10 | Cc1cc(Cl)cc(-c2ncnc3cc(CN4C(=O)CCN(CCF)C4=O)sc23)c1C[C@@H]1CNCC(C)(C)O1 [Example 257, 3-[[4-[5-chloro-2-[[(2R)-6,6-dimethylmorpholin-2-yl]methyl]-3-methyl-phenyl]thieno[3,2-d]pyrimidin-6-yl]methyl]-1-(2-fluoroethyl)hexahydropyrimidine-2,4-dione] |
| 10 to 100 | Cc1cc(Cl)cc(-c2ncnc3cc(CN4C(=O)CN(CC(=O)O)C4=O)sc23)c1C[C@@H]1CNCCO1 [Example 261, (R)-2-(3-((4-(5-chloro-3-methyl-2-(morpholin-2-ylmethyl)phenyl)thieno[3,2-d]pyrimidin-6-yl)methyl)-2,4-dioxoimidazolidin-1-yl)acetic acid] |

More lines, now with the values behind:

| SMILES | IC50 [nM] |
| --- | --- |
| Cc1cc(Cl)cc(-c2ncnc3cc(CN4C(=O)CC(C)(C)CC4=O)sc23)c1CN1C[C@@H](C)NC[C@@H]1C [Example 70, 1-((4-(5-chloro-2-(((2S,5R)-2,5-dimethylpiperazin-1-yl)methyl)-3-methylphenyl)thieno[3,2-d]pyrimidin-6-yl)methyl)-4,4-dimethylpiperidine-2,6-dione] | 10 to 100 |
| Cc1cc(Cl)cc(-c2ccnc3cc(CN4C(=O)C5C(C4=O)C5(C)C)sc23)c1CC1OCCNC1=O (stereo not shown) [Example 101, 3-((7-(5-chloro-3-methyl-2-((3-oxomorpholin-2-yl)methyl)phenyl)thieno[3,2-b]pyridin-2-yl)methyl)-6,6-dimethyl-3-azabicyclo[3.1.0]hexane-2,4-dione] | 10 to 100 |
| Cc1cc(Cl)cc(-c2ccnc3cc(CN4C(=O)CCC4=O)sc23)c1CN1[C@H](C)CNC[C@H]1C [Example 27, 1-((7-(5-chloro-2-(((2R,6R)-2,6-dimethylpiperazin-1-yl)methyl)-3-methylphenyl)thieno[3,2-b]pyridin-2-yl)methyl)pyrrolidine-2,5-dione] | 10 to 100 |
| Cc1cc(Cl)cc(-c2ccnc3cc(CN4C(=O)C5CC5C4=O)sc23)c1C[C@H]1O[C@H](C)CNC1=O (stereo partly drawn) [Example 105, 3-((7-(5-chloro-3-methyl-2-(((2R,6R)-6-methyl-3-oxomorpholin-2-yl)methyl)phenyl)thieno[3,2-b]pyridin-2-yl)methyl)-3-azabicyclo[3.1.0]hexane-2,4-dione] | > 100 |
| CC1(C)C2C(=O)N(Cc3cc4nccc(-c5cc(Cl)cc(Cl)c5CC5CNCCO5)c4s3)C(=O)C21 (stereo not shown) [Example 140, 3-((7-(3,5-dichloro-2-(morpholin-2-ylmethyl)phenyl)thieno[3,2-b]pyridin-2-yl)methyl)-6,6-dimethyl-3-azabicyclo[3.1.0]hexane-2,4-dione] | < 10 |
| Cc1cc(Cl)cc(-c2ccnc3cc(CN4C(=O)CCC4=O)sc23)c1CN1CCNCC1(C)C [Example 12, 1-((7-(5-chloro-2-((2,2-dimethylpiperazin-1-yl)methyl)-3-methylphenyl)thieno[3,2-b]pyridin-2-yl)methyl)pyrrolidine-2,5-dione] | < 10 |
| Cc1cc(Cl)cc(-c2ccnc3c(F)c(CN4C(=O)C5C(C4=O)C5(C)C)sc23)c1C[C@@H]1CNCCO1 (stereo partly drawn) [Example 146, 3-((7-(5-chloro-3-methyl-2-(((R)-morpholin-2-yl)methyl)phenyl)-3-fluorothieno[3,2-b]pyridin-2-yl)methyl)-6,6-dimethyl-3-azabicyclo[3.1.0]hexane-2,4-dione] | 10 to 100 |
| Cc1cc(Cl)cc(-c2ncnc3cc(CN4C(=O)CCN(CC(F)F)C4=O)sc23)c1CN1[C@@H](C)CNC[C@@H]1C [Example 259, 3-((4-(5-chloro-2-(((2S,6S)-2,6-dimethylpiperazin-1-yl)methyl)-3-methylphenyl)thieno[3,2-d]pyrimidin-6-yl)methyl)-1-(2,2-difluoroethyl)dihydropyrimidine-2,4(1H,3H)-dione] | < 10 |
| Cc1cc(Cl)cc(-c2ccnc3cc(CN4C(=O)CCC4=O)sc23)c1CN1C[C@@H](C)N[C@H](C)C1 [Example 26, 1-((7-(5-chloro-2-(((3R,5R)-3,5-dimethylpiperazin-1-yl)methyl)-3-methylphenyl)thieno[3,2-b]pyridin-2-yl)methyl)pyrrolidine-2,5-dione] | < 10 |
| C[C@@H]1CN(Cc2c(Cl)cc(Cl)cc2-c2ccnc3cc(CN4C(=O)C5CC5C4=O)sc23)[C@@H](C)CN1 (stereo partly drawn) [Example 43, 3-((7-(3,5-dichloro-2-(((2S,5R)-2,5-dimethylpiperazin-1-yl)methyl)phenyl)thieno[3,2-b]pyridin-2-yl)methyl)-3-azabicyclo[3.1.0]hexane-2,4-dione] | < 10 |
| Cc1cc(Cl)cc(-c2ccnc3cc(CN4C(=O)CCC4=O)sc23)c1CN1CCN(CCO)C[C@@H]1C [Example 13, (S)-1-((7-(5-chloro-2-((4-(2-hydroxyethyl)-2-methylpiperazin-1-yl)methyl)-3-methylphenyl)thieno[3,2-b]pyridin-2-yl)methyl)pyrrolidine-2,5-dione] | < 10 |
| C[C@H]1CNCCN1Cc1c(F)cccc1-c1ncnc2cc(CN3C(=O)C4CC4C3=O)sc12 (stereo partly drawn) [Example 72, 3-((4-(3-fluoro-2-(((S)-2-methylpiperazin-1-yl)methyl)phenyl)thieno[3,2-d]pyrimidin-6-yl)methyl)-3-azabicyclo[3.1.0]hexane-2,4-dione] | > 100 |
| Cc1cc(Cl)cc(-c2ccnc3cc(CN4C(=O)C5CC5C4=O)sc23)c1CN1CCCNC(C)C1 (stereo not shown) [Example 41, 3-((7-(5-chloro-3-methyl-2-((3-methyl-1,4-diazepan-1-yl)methyl)phenyl)thieno[3,2-b]pyridin-2-yl)methyl)-3-azabicyclo[3.1.0]hexane-2,4-dione] | 10 to 100 |
| Cc1cc(Cl)cc(-c2ccnc3cc(CN4C(=O)C5CC5C4=O)sc23)c1C[C@@H]1CN[C@@H](C)CO1 (stereo partly shown) [Example 98, 3-((7-(5-chloro-3-methyl-2-((5-methylmorpholin-2-yl)methyl)phenyl)thieno[3,2-b]pyridin-2-yl)methyl)-3-azabicyclo[3.1.0]hexane-2,4-dione] | < 10 |
| Cc1cc(Cl)cc(-c2ccnc3cc(CN4C(=O)CCC4=O)sc23)c1CN1CCCNCC1 [Example 17, 1-((7-(2-((1,4-diazepan-1-yl)methyl)-5-chloro-3-methylphenyl)thieno[3,2-b]pyridin-2-yl)methyl)pyrrolidine-2,5-dione] | < 10 |
| Cc1cc(Cl)cc(-c2ccnc3cc([C@H](C)N4C(=O)C5C(C4=O)C5(C)C)sc23)c1C[C@@H]1CNCCO1 (stereo partly drawn) [Example 133, 3-((S)-1-(7-(5-chloro-3-methyl-2-(((R)-morpholin-2-yl)methyl)phenyl)thieno[3,2-b]pyridin-2-yl)ethyl)-6,6-dimethyl-3-azabicyclo[3.1.0]hexane-2,4-dione] | < 10 |
| Cc1cc(Cl)cc(-c2ncnc3cc(CN4C(=O)C5C(C4=O)C5(C)C)sc23)c1CN1C[C@@H](C)NC[C@@H]1C (stereo partly drawn) [Example 67, 3-((4-(5-chloro-2-(((2S,5R)-2,5-dimethylpiperazin-1-yl)methyl)-3-methylphenyl)thieno[3,2-d]pyrimidin-6-yl)methyl)-6,6-dimethyl-3-azabicyclo[3.1.0]hexane-2,4-dione] | < 10 |
| CCN1CCN(Cc2c(C)cc(Cl)cc2-c2ccnc3cc(CN4C(=O)C5C(C4=O)C5(C)C)sc23)[C@@H](C)C1 (stereo partly drawn) [Example 24, 3-((7-(5-chloro-2-(((S)-4-ethyl-2-methylpiperazin-1-yl)methyl)-3-methylphenyl)thieno[3,2-b]pyridin-2-yl)methyl)-6,6-dimethyl-3-azabicyclo[3.1.0]hexane-2,4-dione] | < 10 |
